The experiment concerns P388 leukemia ip, CD2F1 mice, survival T/C. Nature of the experiment: NCI In Vivo Anticancer Drug Screen. Data for tumor model P388 Leukemia (intraperitoneal) in CD2F1 (CDF1) mice. As to conditions: endpoint: median survival time, higher = longer survival. A digest of the protocol: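 Mice carrying the transplanted tumor received test compound or vehicle. Survival was recorded in each group, and the value is the treated-group measurement divided by that of the vehicle-treated control group.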

Where [1] appears, read: dose: 100.0 mg/kg/injection, schedule: Q01DX001 (ip), vehicle: Klucel (hydroxypropylcellulose) (HPC).
[2] abbreviates: dose: 200.0 mg/kg/injection, schedule: Q01DX001 (ip), vehicle: Klucel (hydroxypropylcellulose) (HPC).
The mark [3] stands for this setting: dose: 100.0 mg/kg/injection, schedule: Q01DX009 (ip), vehicle: saline with Tween-80.
[4] abbreviates: dose: 400.0 mg/kg/injection, schedule: Q01DX009 (ip), vehicle: saline with Tween-80.
[5] abbreviates: dose: 60.0 mg/kg/injection, schedule: Q01DX005 (ip), vehicle: Klucel (hydroxypropylcellulose) (HPC).
Where [6] appears, read: dose: 120.0 mg/kg/injection, schedule: Q01DX005 (ip), vehicle: Klucel (hydroxypropylcellulose) (HPC).
The mark [7] stands for this setting: dose: 240.0 mg/kg/injection, schedule: Q01DX005 (ip), vehicle: Klucel (hydroxypropylcellulose) (HPC).
[8] abbreviates: dose: 200.0 mg/kg/injection, schedule: Q01DX009 (ip), vehicle: saline with Tween-80.
Setting [9] is: dose: 6.25 mg/kg/injection, schedule: Q01DX009 (ip), vehicle: water.
The mark [10] stands for this setting: dose: 12.5 mg/kg/injection, schedule: Q01DX009 (ip), vehicle: water.
Setting [11] is: dose: 6.25 mg/kg/injection, schedule: Q01DX009 (ip), vehicle: Klucel (hydroxypropylcellulose) (HPC).
[12] abbreviates: dose: 12.5 mg/kg/injection, schedule: Q01DX009 (ip), vehicle: Klucel (hydroxypropylcellulose) (HPC).
Where [13] appears, read: dose: 25.0 mg/kg/injection, schedule: Q01DX009 (ip), vehicle: Klucel (hydroxypropylcellulose) (HPC).
Setting [14] is: dose: 50.0 mg/kg/injection, schedule: Q01DX009 (ip), vehicle: Klucel (hydroxypropylcellulose) (HPC).
Where [15] appears, read: dose: 50.0 mg/kg/injection, schedule: Q04DX003 (ip), vehicle: saline with Tween-80.
Setting [16] is: dose: 100.0 mg/kg/injection, schedule: Q04DX003 (ip), vehicle: saline with Tween-80.
Setting [17] is: dose: 200.0 mg/kg/injection, schedule: Q04DX003 (ip), vehicle: saline with Tween-80.

Several values for one entry are separate records, joined by “and”; a condition that tells them apart may be missing. Equal entries are not always repeated. Inconclusive results and toxic doses are left out.

As to `CC1(O)C2C3C(I)C4C5C3C1C5C42` (centres undefined), the T/C reads like this: under setting [1], 92 % of control; under setting [2], 88 % of control; (dose: 400.0 mg/kg/injection, schedule: Q01DX001 (ip), vehicle: Klucel (hydroxypropylcellulose) (HPC)) 87 % of control.

Consider `C=C(C)C1CC=C(/C=N/O)CC1` (centres undefined), for which the T/C is 100 % of control under setting [3] and 91 % of control under setting [4].

Turning to `CN(C)/N=C1/CC(=O)CC(C)(C)C1`, the T/C reads like this: under setting [5], 102 % of control; under setting [6], 100 % of control; under setting [7], 99 % of control.

As for `O=C1CSC(c2cccs2)N1c1nncs1` (centres undefined), the T/C is 100 % of control under setting [5], 100 % of control under setting [6] and 172 % of control under setting [7].

Consider `Cc1ccc(NC(=O)NNC(=O)CNC(=O)Nc2n[nH]c(=S)s2)c(C)c1`, for which the T/C was 92 % of control (dose: 50.0 mg/kg/injection, schedule: Q01DX009 (ip), vehicle: saline with Tween-80); 86 % of control under setting [3]; 91 % of control under setting [8].

On to `O=C1C2C(C(=O)N1c1ccc(OCc3ccccc3)cc1)C1c3ccccc3C2C2CCCCN21` (centres undefined), for which the T/C by setting is: (dose: 3.13 mg/kg/injection, schedule: Q01DX009 (ip), vehicle: water) 100 % of control; under setting [9], 105 % of control; under setting [10], 109 % of control; (dose: 25.0 mg/kg/injection, schedule: Q01DX009 (ip), vehicle: water) 111 % of control.

As to `O=C(Nc1ccccc1F)OCCCl`, the T/C (dose: 60.0 mg/kg/injection, schedule: Q01DX005 (ip), vehicle: saline with Tween-80) was 99 % of control; the T/C (dose: 120.0 mg/kg/injection, schedule: Q01DX005 (ip), vehicle: saline with Tween-80) is 101 % of control; the T/C (dose: 240.0 mg/kg/injection, schedule: Q01DX005 (ip), vehicle: saline with Tween-80) was 93 % of control.

In the case of `NC(=S)c1ccc(N=Cc2ccc(Cl)cc2)cc1`, the T/C was 97 % of control (dose: 50.0 mg/kg/injection, schedule: Q01DX001 (ip), vehicle: Klucel (hydroxypropylcellulose) (HPC)); 100 % of control under setting [1]; 102 % of control under setting [2].

Turning to `O=[N+]([O-])c1ccc(N/N=C/c2ccc(Cl)cc2)nc1`, the T/C under setting [11] was 87 % of control; the T/C under setting [12] was 89 % of control; the T/C under setting [13] was 91 % of control; the T/C under setting [14] is 91 % of control; the T/C (dose: 100.0 mg/kg/injection, schedule: Q01DX009 (ip), vehicle: Klucel (hydroxypropylcellulose) (HPC)) is 98 % of control; the T/C (dose: 200.0 mg/kg/injection, schedule: Q01DX009 (ip), vehicle: Klucel (hydroxypropylcellulose) (HPC)) is 105 % of control and 89 % of control. Further, the T/C reads like this: under setting [8], 91 % of control and 93 % of control; under setting [4], 112 % of control.

Take `N#CC1(C#N)C2C=CC(C3CC=CC32)C1(C#N)C#N` (centres undefined): the T/C was 106 % of control (dose: 3.13 mg/kg/injection, schedule: Q01DX009 (ip), vehicle: Klucel (hydroxypropylcellulose) (HPC)); 98 % of control under setting [11]; 110 % of control under setting [12]; 108 % of control under setting [13].

With `COc1cccc2c1C(=O)c1c(O)c3c(c(O)c1C2=O)CC(O)(C(C)NCCN(C)C)CC3OC1CC(N)C(O)C(C)O1` (centres undefined), the T/C is, setting by setting: (dose: 0.63 mg/kg/injection, schedule: Q01DX009 (ip), vehicle: water) 103 % of control; (dose: 1.25 mg/kg/injection, schedule: Q01DX009 (ip), vehicle: water) 106 % of control; (dose: 2.5 mg/kg/injection, schedule: Q01DX009 (ip), vehicle: other) 121 % of control; (dose: 20.0 mg/kg/injection, schedule: Q01DX009 (ip), vehicle: other) 153 % of control; (dose: 40.0 mg/kg/injection, schedule: Q01DX009 (ip), vehicle: other) 157 % of control.

For `COc1ccccc1C1OC(c2ccccc2OC)C2CCN(C)C2(C)O1` (centres undefined), the T/C (dose: 100.0 mg/kg/injection, schedule: Q04DX002 (ip), vehicle: saline with Tween-80) was 92 % of control; the T/C (dose: 200.0 mg/kg/injection, schedule: Q04DX002 (ip), vehicle: saline with Tween-80) is 91 % of control; the T/C (dose: 400.0 mg/kg/injection, schedule: Q04DX002 (ip), vehicle: saline with Tween-80) was 101 % of control.

On to `CN(C)c1cccc2c(S(=O)(=O)Cl)cccc12`, for which the T/C reads like this: (dose: 25.0 mg/kg/injection, schedule: Q04DX003 (ip), vehicle: saline with Tween-80) 106 % of control; under setting [15], 114 % of control; under setting [16], 110 % of control; under setting [17], 124 % of control.

Consider `COc1cccc2c(NCCCCCO[N+](=O)[O-])cc[n+](C)c12`, for which the T/C under setting [12] was 104 % of control, the T/C under setting [13] was 110 % of control and the T/C under setting [14] was 107 % of control.

For `CC(C)C(C)C(O)C(O)C(C)C1CCC2C3COC(=O)C4CC(O)C(O)CC4(C)C3CCC12C` (centres undefined), the T/C (dose: 0.75 mg/kg/injection, schedule: Q01DX009 (ip), vehicle: saline with Tween-80) is 106 % of control; the T/C (dose: 1.05 mg/kg/injection, schedule: Q01DX009 (ip), vehicle: saline with Tween-80) is 98 % of control; the T/C (dose: 1.5 mg/kg/injection, schedule: Q01DX009 (ip), vehicle: saline with Tween-80) is 112 % of control; the T/C (dose: 2.1 mg/kg/injection, schedule: Q01DX009 (ip), vehicle: saline with Tween-80) was 103 % of control; the T/C (dose: 3.0 mg/kg/injection, schedule: Q01DX009 (ip), vehicle: saline with Tween-80) was 99 % of control; the T/C (dose: 4.2 mg/kg/injection, schedule: Q01DX009 (ip), vehicle: saline with Tween-80) was 100 % of control. Moreover, the T/C (dose: 6.0 mg/kg/injection, schedule: Q01DX009 (ip), vehicle: saline with Tween-80) was 103 % of control.

For the compound `CCCCOC(=O)C(NC(N)=O)SC` (centres undefined), the T/C reads like this: under setting [15], 95 % of control; under setting [16], 100 % of control; under setting [17], 99 % of control.

Consider `COC(=O)C1CC(O)CC(C(=O)OC)O1` (centres undefined), for which the T/C reads like this: (dose: 60.0 mg/kg/injection, schedule: Q01DX005 (ip), vehicle: saline) 96 % of control; (dose: 120.0 mg/kg/injection, schedule: Q01DX005 (ip), vehicle: saline) 90 % of control.

Take `O=C(OCC(Cl)(Cl)Cl)N1C2C3OC3C(C3OC32)N1C(=O)OCC(Cl)(Cl)Cl` (centres undefined): the T/C is, setting by setting: (dose: 50.0 mg/kg/injection, schedule: Q01DX009 (ip), vehicle: suspension in saline) 99 % of control; (dose: 100.0 mg/kg/injection, schedule: Q01DX009 (ip), vehicle: suspension in saline) 92 % of control; (dose: 200.0 mg/kg/injection, schedule: Q01DX009 (ip), vehicle: suspension in saline) 94 % of control.

Regarding `CCCCCC(C(=O)OCC)/C(C)=N\NC(N)=S` (centres undefined), the T/C reads like this: under setting [5], 100 % of control; under setting [6], 98 % of control; under setting [7], 100 % of control.

In the case of `Cc1ccc(NN=O)nc1`, the T/C was 151 % of control and 152 % of control under setting [9]; 153 % of control and 183 % of control under setting [10].

As for `C/C1=C/CCC(C)c2cc(OC(=O)c3ccccc3)c(C)cc2C1` (centres undefined), the T/C by setting is: (dose: 25.0 mg/kg/injection, schedule: Q01DX005 (ip), vehicle: Klucel (hydroxypropylcellulose) (HPC)) 104 % of control; (dose: 50.0 mg/kg/injection, schedule: Q01DX005 (ip), vehicle: Klucel (hydroxypropylcellulose) (HPC)) 99 % of control; (dose: 70.0 mg/kg/injection, schedule: Q01DX005 (ip), vehicle: Klucel (hydroxypropylcellulose) (HPC)) 90 % of control; (dose: 100.0 mg/kg/injection, schedule: Q01DX005 (ip), vehicle: Klucel (hydroxypropylcellulose) (HPC)) 107 % of control; (dose: 140.0 mg/kg/injection, schedule: Q01DX005 (ip), vehicle: Klucel (hydroxypropylcellulose) (HPC)) 95 % of control; (dose: 200.0 mg/kg/injection, schedule: Q01DX005 (ip), vehicle: Klucel (hydroxypropylcellulose) (HPC)) 95 % of control. Besides, the T/C by setting is: (dose: 280.0 mg/kg/injection, schedule: Q01DX005 (ip), vehicle: Klucel (hydroxypropylcellulose) (HPC)) 90 % of control; (dose: 560.0 mg/kg/injection, schedule: Q01DX005 (ip), vehicle: Klucel (hydroxypropylcellulose) (HPC)) 90 % of control.

Source of the values: PubChem BioAssay AID330 (DTP/NCI, 2004).
